Among the data in publication PMC11139883, “Functional and structural dissection of glycosyltransferases underlying the glycodiversity of wolfberry-derived bioactive ingredients lycibarbarspermidines” (Nature Communications, 2024) are Km, kcat and kcat/Km values, retold here.

Common to all, as to assay: LC-MS product assay, Michaelis-Menten fit
Holding throughout (assay type): biochemical, Lycium barbarum
What all share (conditions): 2.5 mM UDP-Glc, 1 mM MgCl2, 10 mM HEPES pH 7.0, 30 °C

The subject of one data set is T1, LbUGT2.
T1 construct: full length; GST fusion (pGEX-2TK) from E. coli Rosetta (DE3)
The source says: LC-MS product assay, Michaelis-Menten fit on LbUGT2

In a further data set the test system is T2, LbUGT4.
T2 construct: full length; GST fusion (pGEX-2TK) from E. coli Rosetta (DE3)
The source says:
LC-MS product assay, Michaelis-Menten fit on LbUGT4

Another data set has as its system T3, LbUGT3.
T3 construct: full length (482 residues by printed domain borders); GST fusion (pGEX-2TK) from E. coli Rosetta (DE3) for assays; crystal protein with GST-His tag removed by TEV
The source says: LC-MS product assay, Michaelis-Menten fit on LbUGT3

Substrate in data set [1]: O=C(/C=C/c1ccc(O)c(O)c1)NCCCNCCCCNC(=O)CCc1ccc(O)c(O)c1
The source says:
LC-MS product assay, Michaelis-Menten fit on LbUGT1

For orientation: Km means the concentration of substrate that gives half-maximal velocity. Regarding `O=C(/C=C/c1ccc(O)c(O)c1)NCCCNCCCCNC(=O)CCc1ccc(O)c(O)c1` [compound 1, N^1-caffeoyl-N^10-dihydrocaffeoylspermidine], the Km was found to be 762 µM with LbUGT2, 901 µM in the data set on LbUGT4 and 325 µM with LbUGT3.

B1: LbUGT1 (Lycium barbarum) (protein)
chain: LTTKAELVFIPSPGAGHLISAIEIAKLILNRDERLCISVLIMKLPMDFGVQSYVASLSSSPRLQFVDITLDEKTVAGLLKNKESFFTDFIQGHKPKVKDFIHNTSFSKSGSGFSRLAGFVLDMFCTSMIDVASEFSVPSYIFLTSNAAFLALCYHFESLKKEHHIDTSKYKDSDEELTIPGFKNPYPGKFLPRLTTDQTTATTLFFDSVTRFKETKGIMVNTFAELEPFALQSLLVPKIYPVGPVVNFKEGGHGRNSESETESIIKWLDDQPESSVVFLCFGSMGSFDAEQIEEIAVALECSGHRFLWSLRRPPPKGKMELPSNYEDFQEVLPEGFIERTNGVGKVIGWAPQVAVLSHPAVGGFVSHCGWNSVLESLCFGVPIGAWPQYAEQQMNAFELVKQLGLAVEIRMDYFKDFEGKHGPVEIVTAKEIASGIRQLMADGEENEIRKRAKEMKEKSSAAMKEGGSSYASLGLLIEDVISNIS
notes: full length (485 residues by printed domain borders); GST fusion (pGEX-2TK) from E. coli Rosetta (DE3) for assays; crystal protein with MBP-His tag removed by TEV
Broadly, the kcat is the number of substrate molecules converted per active site and unit of time at saturation. A word on the kcat/Km: it is the second-order rate constant that governs catalysis at low substrate concentration. Consider B1, for which, in data set [1], the Km came to 259.4 µM, the turnover number (kcat) stood at 0.0057 s⁻¹ and the kcat/Km was determined as 22.1 M⁻¹ s⁻¹.
